Source: patent publication US4946954A, “Platinum pharmaceutical agents” (priority 1989, dated 1990)

Tests used:
[1] = system: murine P388 leukemia; assay: Example XXXVII: antileukemic activity against murine P388 leukemia, mean survival days and percentage increased life span; type: in vivo; details: 10 mg/kg i.p. on day 1; 1×10^6 P388 cells i.p.; CD2F1 male mice; in sterile saline
Method: The compound 2-[[[3,4,6-tri-O-acetyl-2-(N-acetylamino)-2-deoxy-alpha-D-glucopyranosyl]amino]thioxomethyl]amino]butane-dioato-O,O']-[1,2-cyclohexanediammine-N,N']platinum (II) and cisplatin were tested against murine P388 leukemia. The murine P388 leukemia system is known to be sensitive to cisplatin. The leukemia was maintained intraperitoneally in female DBA/2 mice.
Prior to administration, cisplatin was dissolved in sterile saline (0.85% sodium chloride). The compound 2-[[[3,4,6-tri-O-acetyl-2-(N-acetylamino)-2-deoxy-alpha-D-glucopyranosyl]amino]-thioxomethyl]amino]butanedioato-O,O']-[1,2-cyclohexanediammine-N,N']platinum (II) was dissolved in sterile water at 4° C. immediately prior to administration.
Each compound was administered intraperitoneally to groups of CD2F1 male mice on day 1 after intraperitoneal implantation of 1×10^6 P388 leukemia cells. P388 antileukemic activity for each compound was assessed by mean survival days and percentage increased life span (%ILS).
%ILS is calculated as follows: […]
(§1) wherein T is the mean survival days of the treated mice and C is the mean survival days of the untreated mice.

[2] = system: murine P388 leukemia; assay: Example XXI: antileukemic activity against murine P388 leukemia, mean survival days and percentage increased life span; type: in vivo; details: 10 mg/kg i.p. on day 1; 1×10^6 P388 cells i.p.; CD2F1 male mice; 5% ethanol, 95% sterile water
Method: The cyclohexane-1,2-diammine-platinum(II) salt of 2-(acetylamino)-3,4,6-tri-O-acetyl-2-deoxyglucopyranosyl-amino-thioxomethyl-imino diacetic acid and cisplatin were tested against murine P388 leukemia. The murine P388 leukemia system is known to be sensitive to cisplatin. The leukemia was maintained intraperitoneally in female DBA/2 mice.
Prior to administration, cisplatin was dissolved in ethanol. The solution was then adjusted to 5% ethanol, 95% sterile water The cyclohexane-1,2-diammine-platinum(II) salt of 2-(acetylamino)-3,4,6-tri-O-acetyl-2-deoxyglucopyranosylamino-thioxomethyl-imino diacetic acid was dissolved in sterile water at 4 degrees celsius immediately prior to administration.
Each compound was administered intraperitoneally to groups of CD2F1 male mice on day 1 after intraperitoneal implantation of 1×10^6 P388 leukemia cells. P388 antileukemic activity for each compound was assessed by mean survival days and percentage increased life span (% ILS).
% ILS is calculated as follows: […]
as §1

[3] = system: male CD2F1 mice; assay: Example XXXIX: Deaths Due to Drug Toxicity; type: in vivo
Method: (§2) Murine Antitumor Activity
(§3) *P388 cells implanted intraperitoneally (i.p.) into male CD2F1 mice
(§4) on Day 0. Drugs (in 5% dextrose) administered i.p. on Day 1. Increase in
(§5) life span (% ILS) was calculated compared to a group of mice receiving
(§6) drug vehicle, with a mean survival of 8.5 days.
(§7) +compound was administered as a suspension.

[4] = system: P388 cells; assay: Example XXXIX: Murine Antitumor Activity, P388 Antitumor Activity % ILS; type: in vivo, murine; male CD2F1 mice; details: vehicle mean survival 8.5 days
Method: as §2, §3, §4, §5, §6, §7

[5] = 150 mg/kg single dose i.p. on Day 1, in 5% dextrose
[6] = 250 mg/kg single dose i.p. on Day 1, administered as a suspension
[7] = 200 mg/kg single dose i.p. on Day 1, in 5% dextrose

`N.N.[Cl][Pt][Cl]` [cisplatin, cis-diammine-dichloroplatinum (II)] was tested, and the “% ILS (percentage increased life span)” value [1] was 96%, the “Mean Survival” value [1] was 15.7 days and the “% ILS (percentage increased life span)” value [2] was 83%. For the same compound, the “Mean Survival” value [2] was 17.4 days.
For “cis-R,R-[2-[(pentalacetylgluconyl)imino]propanedioato-O,O'](1,2-cyclohexanediammine-N,N')platinum(II) [R,R-AG-AMP]”, the “Deaths Due to Drug Toxicity” value [3, 5] was 0/10 and the “P388 Antitumor Activity: % ILS” value [4, 5] was 75%.
For “Cis-R,R-(formamidomalonato-O,O')(1,2-cyclohexanediamine-N,N') platinum (II) [FMP]”, the “Deaths Due to Drug Toxicity” value [3, 6] was 2/10, the “P388 Antitumor Activity: % ILS” value ([4]; 150 mg/kg single dose i.p. on Day 1, administered as a suspension) was 84% and the “P388 Antitumor Activity: % ILS” value ([4]; 200 mg/kg single dose i.p. on Day 1, administered as a suspension) was 115%. The “P388 Antitumor Activity: % ILS” value [4, 6] was 81%.
With “Cis-R,R-(acetamidomalonato-O,O')(1,2-cyclohexanediamine-N,N')platinum (II) [AMP]” the “Deaths Due to Drug Toxicity” value [3, 7] was 1/10, the “Deaths Due to Drug Toxicity” value ([3]; 250 mg/kg single dose i.p. on Day 1, in 5% dextrose) was 5/10 and the “P388 Antitumor Activity: % ILS” value [4, 5] was 115%. For the same compound, the “P388 Antitumor Activity: % ILS” value [4, 7] was 93%.
